According to article PMC7930289 (Heliyon, 2021):

How the values were obtained:
[1] = molecular target: hPMCA4 overexpressed in HEK293T cells (Homo sapiens, UniProt P23634); experiment: Dynamics of cytoplasmic Ca2+ in HEK293T cells overexpressing hPMCA4; type: cell-based; conditions: 50 μM, 30 min; for AUC of [Ca2+]CYT after TG addition: 2 μM TG
[2] = molecular target: Na+/K+-ATPase; conditions: read-out: Ki (Na+/K+-ATPase activity); cited from earlier work

hPMCA4 overexpressed in HEK293T cells, sequence (P23634 1-1205 isoform P23634-6): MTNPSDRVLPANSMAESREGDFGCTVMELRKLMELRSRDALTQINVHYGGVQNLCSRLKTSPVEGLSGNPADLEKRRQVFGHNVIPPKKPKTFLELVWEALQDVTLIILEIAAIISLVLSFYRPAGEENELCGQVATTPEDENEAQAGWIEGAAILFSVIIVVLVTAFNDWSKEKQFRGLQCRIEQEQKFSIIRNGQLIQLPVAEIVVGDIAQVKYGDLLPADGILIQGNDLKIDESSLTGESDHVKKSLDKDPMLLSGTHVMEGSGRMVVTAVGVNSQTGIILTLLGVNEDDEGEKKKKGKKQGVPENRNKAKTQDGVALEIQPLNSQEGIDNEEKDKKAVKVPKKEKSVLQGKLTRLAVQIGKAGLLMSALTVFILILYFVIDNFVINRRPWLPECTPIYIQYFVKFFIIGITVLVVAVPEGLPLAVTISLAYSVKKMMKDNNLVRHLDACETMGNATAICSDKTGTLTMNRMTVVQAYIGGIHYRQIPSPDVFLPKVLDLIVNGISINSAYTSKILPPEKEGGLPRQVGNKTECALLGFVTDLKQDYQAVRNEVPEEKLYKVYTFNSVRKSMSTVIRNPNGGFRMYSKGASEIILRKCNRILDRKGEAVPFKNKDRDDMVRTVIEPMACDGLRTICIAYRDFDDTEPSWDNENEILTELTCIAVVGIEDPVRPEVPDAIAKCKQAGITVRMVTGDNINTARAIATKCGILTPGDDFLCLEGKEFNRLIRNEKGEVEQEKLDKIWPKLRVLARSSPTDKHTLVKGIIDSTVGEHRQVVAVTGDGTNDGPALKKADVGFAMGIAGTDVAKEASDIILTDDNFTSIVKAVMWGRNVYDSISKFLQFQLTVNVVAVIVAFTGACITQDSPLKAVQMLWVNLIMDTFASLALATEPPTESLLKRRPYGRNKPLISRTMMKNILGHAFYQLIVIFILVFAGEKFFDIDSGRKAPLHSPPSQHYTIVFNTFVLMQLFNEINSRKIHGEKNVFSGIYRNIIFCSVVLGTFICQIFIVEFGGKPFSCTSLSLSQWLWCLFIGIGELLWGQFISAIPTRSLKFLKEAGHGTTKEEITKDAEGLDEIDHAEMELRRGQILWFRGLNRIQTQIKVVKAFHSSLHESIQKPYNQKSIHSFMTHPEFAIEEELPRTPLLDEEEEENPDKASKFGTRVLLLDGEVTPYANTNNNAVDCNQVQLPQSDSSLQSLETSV

In the case of `O=C(O[C@@H]1Cc2c(O)cc(O)cc2O[C@@H]1c1cc(O)c(O)c(O)c1)c1cc(O)c(O)c(O)c1` [EGCG, (−)-cis-3,3′,4′,5,5′,7-Hexahydroxy-flavane-3-gallate], the “hPMCA4 activity in HEK293T cells (Eq. 6)” value [1] is reported as “significantly decreased”, the “AUC of [Ca2+]CYT after TG addition” value ([1]; HEK293T-hPMCA4 cells) is reported as “induced an increase in the AUC value” and the “AUC of [Ca2+]CYT after TG addition” value ([1]; HEK293T-mock cells) is reported as “no significant effect”. For the same compound, the Ki [2] was 1000 nM.
